Test in all cases: Kinase selectivity, scanMAX Kinase assay panel (DiscoverX), % control at 1 uM
Type in all cases: binding

The target in assay [1] is T1, scanMAX Kinase assay panel (Homo sapiens, UniProt O43293).
T1 construct: purchased DiscoverX
The conditions noted are these: DAPK3; 1 uM; read-out: Percent Control (%). In a few lines:
(§1)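 1 uM cpd (DMSO) per kinase; % ctrl = [cpd − pos ctrl]/[neg ctrl − pos ctrl] × 100; hit if <35.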

Assay [2] concerns the target T2, scanMAX Kinase assay panel (Homo sapiens, UniProt P0C264).
T2 construct: purchased DiscoverX
T2 sequence (P0C264 1-359): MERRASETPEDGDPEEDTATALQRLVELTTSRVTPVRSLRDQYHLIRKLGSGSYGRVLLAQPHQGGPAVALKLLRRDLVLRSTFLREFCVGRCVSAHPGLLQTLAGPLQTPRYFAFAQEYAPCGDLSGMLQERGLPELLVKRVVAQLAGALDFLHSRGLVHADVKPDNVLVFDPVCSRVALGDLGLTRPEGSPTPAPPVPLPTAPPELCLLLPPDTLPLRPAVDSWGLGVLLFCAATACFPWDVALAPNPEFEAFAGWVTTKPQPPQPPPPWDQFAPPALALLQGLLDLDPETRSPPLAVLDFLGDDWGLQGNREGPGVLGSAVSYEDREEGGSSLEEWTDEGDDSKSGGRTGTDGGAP
The conditions noted are these: SgK110; 1 uM; read-out: Percent Control (%). A digest of the protocol:
as §1

Assay [3] addresses T3, scanMAX Kinase assay panel (Homo sapiens, UniProt P21709).
T3 construct: purchased DiscoverX
T3 sequence (P21709 26-976): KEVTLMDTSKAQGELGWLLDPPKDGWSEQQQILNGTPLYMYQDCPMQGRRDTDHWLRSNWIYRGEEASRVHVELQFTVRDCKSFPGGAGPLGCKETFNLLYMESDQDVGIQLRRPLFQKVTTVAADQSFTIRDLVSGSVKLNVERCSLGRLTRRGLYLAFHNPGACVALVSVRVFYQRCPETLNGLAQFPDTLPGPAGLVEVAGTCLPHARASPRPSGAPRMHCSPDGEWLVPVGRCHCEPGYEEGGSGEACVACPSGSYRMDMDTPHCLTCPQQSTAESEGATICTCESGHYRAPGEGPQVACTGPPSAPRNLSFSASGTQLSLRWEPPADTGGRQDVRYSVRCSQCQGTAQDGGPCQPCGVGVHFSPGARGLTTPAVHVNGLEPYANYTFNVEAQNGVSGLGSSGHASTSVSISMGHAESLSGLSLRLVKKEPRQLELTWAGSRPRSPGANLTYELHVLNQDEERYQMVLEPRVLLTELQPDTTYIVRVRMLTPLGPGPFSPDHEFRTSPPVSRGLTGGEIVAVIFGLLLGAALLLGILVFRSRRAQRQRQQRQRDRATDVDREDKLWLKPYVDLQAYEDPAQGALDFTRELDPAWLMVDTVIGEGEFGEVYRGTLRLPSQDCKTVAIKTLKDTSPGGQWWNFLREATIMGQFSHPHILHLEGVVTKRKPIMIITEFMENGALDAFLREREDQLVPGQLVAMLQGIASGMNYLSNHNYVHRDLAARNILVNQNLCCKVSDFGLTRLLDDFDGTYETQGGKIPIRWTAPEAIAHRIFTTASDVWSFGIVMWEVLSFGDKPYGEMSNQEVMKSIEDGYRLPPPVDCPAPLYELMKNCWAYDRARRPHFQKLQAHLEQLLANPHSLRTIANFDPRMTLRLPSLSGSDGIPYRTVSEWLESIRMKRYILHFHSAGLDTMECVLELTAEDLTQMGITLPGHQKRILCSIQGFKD
The conditions noted are these: EPHA1; 1 uM; read-out: Percent Control (%). A digest of the protocol:
as §1

Assay [4] deals with T4, scanMAX Kinase assay panel (Homo sapiens, UniProt P27037).
T4 construct: purchased DiscoverX
T4 sequence (P27037 20-513): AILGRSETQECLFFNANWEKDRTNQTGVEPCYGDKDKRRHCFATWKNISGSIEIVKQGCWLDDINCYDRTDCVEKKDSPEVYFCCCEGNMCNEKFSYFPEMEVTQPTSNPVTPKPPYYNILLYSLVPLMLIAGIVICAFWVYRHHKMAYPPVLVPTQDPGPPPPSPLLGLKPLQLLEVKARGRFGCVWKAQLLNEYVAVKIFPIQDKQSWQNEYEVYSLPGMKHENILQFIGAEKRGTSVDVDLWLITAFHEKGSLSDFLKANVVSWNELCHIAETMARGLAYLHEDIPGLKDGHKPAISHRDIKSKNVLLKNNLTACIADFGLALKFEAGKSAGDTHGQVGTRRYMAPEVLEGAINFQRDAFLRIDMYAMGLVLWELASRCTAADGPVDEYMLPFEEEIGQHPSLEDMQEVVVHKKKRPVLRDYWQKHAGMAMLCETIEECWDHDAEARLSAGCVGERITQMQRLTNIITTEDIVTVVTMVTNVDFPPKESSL
The conditions noted are these: ACVR2A; 1 uM; read-out: Percent Control (%). A digest of the protocol:
as §1

Assay [5] addresses T5, scanMAX Kinase assay panel (Homo sapiens, UniProt Q00532).
T5 construct: purchased DiscoverX
Conditions: CDKL1; 1 uM; read-out: Percent Control (%). A digest of the protocol:
as §1

Assay [6] deals with T6, scanMAX Kinase assay panel (Homo sapiens, UniProt Q13153).
T6 construct: purchased DiscoverX
T6 sequence (Q13153 whole entry): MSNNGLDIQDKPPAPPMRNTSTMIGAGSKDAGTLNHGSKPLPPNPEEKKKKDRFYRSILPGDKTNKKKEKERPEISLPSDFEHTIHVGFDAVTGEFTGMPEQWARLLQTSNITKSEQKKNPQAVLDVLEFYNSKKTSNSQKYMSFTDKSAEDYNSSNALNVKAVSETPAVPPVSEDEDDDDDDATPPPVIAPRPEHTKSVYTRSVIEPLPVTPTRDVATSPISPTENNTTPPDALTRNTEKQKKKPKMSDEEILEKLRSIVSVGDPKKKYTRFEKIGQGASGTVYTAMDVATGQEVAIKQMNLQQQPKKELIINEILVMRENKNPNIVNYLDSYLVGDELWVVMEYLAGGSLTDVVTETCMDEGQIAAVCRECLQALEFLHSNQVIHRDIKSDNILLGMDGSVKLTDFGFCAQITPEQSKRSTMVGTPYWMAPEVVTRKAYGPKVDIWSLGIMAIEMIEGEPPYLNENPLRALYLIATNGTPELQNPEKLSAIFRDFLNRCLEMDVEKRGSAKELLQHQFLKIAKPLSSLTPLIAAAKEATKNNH
The conditions noted are these: PAK1; 1 uM; read-out: Percent Control (%). A digest of the protocol:
as §1

Assay [7] addresses T7, scanMAX Kinase assay panel (Homo sapiens, UniProt Q13546).
T7 construct: purchased DiscoverX
T7 sequence (Q13546 1-671): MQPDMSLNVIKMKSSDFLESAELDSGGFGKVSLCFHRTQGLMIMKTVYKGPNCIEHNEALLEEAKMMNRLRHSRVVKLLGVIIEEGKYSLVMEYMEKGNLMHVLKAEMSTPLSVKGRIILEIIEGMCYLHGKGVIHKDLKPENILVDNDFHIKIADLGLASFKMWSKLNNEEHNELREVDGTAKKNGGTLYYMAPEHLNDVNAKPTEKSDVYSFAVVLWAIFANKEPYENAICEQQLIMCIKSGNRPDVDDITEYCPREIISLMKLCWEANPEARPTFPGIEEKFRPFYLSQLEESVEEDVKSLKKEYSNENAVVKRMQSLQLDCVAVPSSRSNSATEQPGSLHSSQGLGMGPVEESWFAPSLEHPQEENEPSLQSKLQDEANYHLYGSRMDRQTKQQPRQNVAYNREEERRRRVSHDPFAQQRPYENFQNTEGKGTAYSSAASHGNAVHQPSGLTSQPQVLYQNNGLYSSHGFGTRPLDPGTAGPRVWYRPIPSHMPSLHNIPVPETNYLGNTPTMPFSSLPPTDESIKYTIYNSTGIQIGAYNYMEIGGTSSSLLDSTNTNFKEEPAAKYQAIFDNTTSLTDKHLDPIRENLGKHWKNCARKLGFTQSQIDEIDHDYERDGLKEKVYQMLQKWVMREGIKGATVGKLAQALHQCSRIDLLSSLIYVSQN
The conditions noted are these: RIPK1; 1 uM; read-out: Percent Control (%). A digest of the protocol: as §1

Assay [8] addresses T8, scanMAX Kinase assay panel (Homo sapiens, UniProt Q9H4B4).
T8 construct: purchased DiscoverX
Conditions: PLK3; 1 uM; read-out: Percent Control (%). In a few lines:
as §1

T1 sequence (O43293 whole entry): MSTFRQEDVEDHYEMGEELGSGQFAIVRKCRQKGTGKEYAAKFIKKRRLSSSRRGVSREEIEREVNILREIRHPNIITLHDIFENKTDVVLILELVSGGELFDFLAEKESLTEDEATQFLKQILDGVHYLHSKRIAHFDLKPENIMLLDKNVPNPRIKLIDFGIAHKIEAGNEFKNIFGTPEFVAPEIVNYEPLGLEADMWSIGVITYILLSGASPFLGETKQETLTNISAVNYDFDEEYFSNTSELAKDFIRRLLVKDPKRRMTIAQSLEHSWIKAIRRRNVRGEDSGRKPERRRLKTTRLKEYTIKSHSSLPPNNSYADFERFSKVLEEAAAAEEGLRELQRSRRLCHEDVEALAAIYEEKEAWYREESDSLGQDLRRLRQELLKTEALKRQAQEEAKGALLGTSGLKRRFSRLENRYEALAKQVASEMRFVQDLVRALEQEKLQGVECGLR
T8 sequence (Q9H4B4 whole entry): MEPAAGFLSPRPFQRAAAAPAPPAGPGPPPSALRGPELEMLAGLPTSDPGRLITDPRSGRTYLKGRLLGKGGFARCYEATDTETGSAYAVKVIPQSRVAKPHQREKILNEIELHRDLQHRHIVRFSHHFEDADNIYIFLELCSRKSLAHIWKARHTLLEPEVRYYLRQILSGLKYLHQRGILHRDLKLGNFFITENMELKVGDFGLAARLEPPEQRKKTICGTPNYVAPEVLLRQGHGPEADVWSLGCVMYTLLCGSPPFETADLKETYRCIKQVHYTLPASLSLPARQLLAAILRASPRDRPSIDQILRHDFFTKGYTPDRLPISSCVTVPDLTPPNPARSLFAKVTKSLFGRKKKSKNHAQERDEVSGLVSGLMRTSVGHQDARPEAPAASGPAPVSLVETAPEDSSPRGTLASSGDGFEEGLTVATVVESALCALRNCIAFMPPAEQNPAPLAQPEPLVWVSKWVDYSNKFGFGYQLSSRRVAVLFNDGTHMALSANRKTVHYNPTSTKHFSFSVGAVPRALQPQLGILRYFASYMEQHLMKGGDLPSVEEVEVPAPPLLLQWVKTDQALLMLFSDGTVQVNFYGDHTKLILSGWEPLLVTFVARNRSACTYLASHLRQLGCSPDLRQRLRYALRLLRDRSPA
T5 sequence (Q00532 whole entry): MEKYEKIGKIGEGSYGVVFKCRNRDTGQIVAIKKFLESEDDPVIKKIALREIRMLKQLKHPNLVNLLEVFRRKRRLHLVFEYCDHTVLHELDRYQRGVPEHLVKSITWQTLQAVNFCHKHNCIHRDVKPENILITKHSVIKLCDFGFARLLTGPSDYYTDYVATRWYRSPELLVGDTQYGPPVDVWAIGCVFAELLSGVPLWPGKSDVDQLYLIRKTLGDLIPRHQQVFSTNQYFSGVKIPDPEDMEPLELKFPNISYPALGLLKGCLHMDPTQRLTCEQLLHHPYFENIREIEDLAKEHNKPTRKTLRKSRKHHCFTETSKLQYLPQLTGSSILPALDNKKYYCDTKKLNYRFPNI

On to `Cc1ccc(C(=O)Nc2ccc(CN3CCN(C)CC3)c(C(F)(F)F)c2)cc1C#Cc1cnc2c(Nc3cnn(C)c3)cccn12` [Example 1, 4-methyl-3-((8-((1-methyl-1H-pyrazol-4-yl)amino)imidazo[1,2-a]pyridin-3-yl)ethynyl)-N-(4-((4-methylpiperazin-1-yl)methyl)-3-(trifluoromethyl)phenyl)benzamide], for which the remaining binding at 1 µM came out at 68% in assay [1]; 95% in assay [2]; 2% in assay [3]; 95% in assay [4]; 25% in assay [5]; 89% in assay [6]. In addition, the figures for the remaining binding at 1 µM in assay [7] and in assay [8] were 0% and 77%, respectively.

For the molecule `Cc1ccc(NC(=O)C2(C(=O)Nc3ccc(F)cc3)CC2)cc1C#Cc1cnc2c(Nc3cnn(C(C)C)c3)cccn12` [Example 78], the remaining binding at 1 µM in assay [1] amounted to 100%; in assay [2], 100%; in assay [3], 69%; in assay [4], 100%; in assay [5] it was 83%; in assay [6] it was 100%. For the same molecule, the remaining binding at 1 µM was determined as 19% in assay [7] and 92% in assay [8].

Consider `Cc1cn(-c2cc(NC(=O)c3ccc(C)c(C#Cc4cnc5c(Nc6cnn(C)c6)cccn45)c3)cc(C(F)(F)F)c2)cn1` [Example 12, 4-methyl-N-(3-(4-methyl-1H-imidazol-1-yl)-5-(trifluoromethyl)phenyl)-3-((8-((1-methyl-1H-pyrazol-4-yl)amino)imidazo[1,2-a]pyridin-3-yl)ethynyl)benzamide], for which the remaining binding at 1 µM in assay [1] was determined as 100%; in assay [2], 81%; in assay [3] it was 8%; in assay [4], 100%; in assay [5], 60%; in assay [6], 87%. Further, the remaining binding at 1 µM in assay [7] is 5%; in assay [8], 100%.

Source of the values: patent publication US10870647B2, “Imidazopyridine derivative, method for preparing same, and pharmaceutical composition containing same as active ingredient for preventing or treating cancer” (DAEGU-GYEONGBUK MEDICAL INNOVATION FOUNDATION, priority 2016, dated 2020).
